# Reference: US20230285377A1, “KCNT1 INHIBITORS AND METHODS OF USE” (Praxis Precision Medicines, Inc., priority 2020, published 2023)
# Biological target: KCNT1 (KNa1.1, Slack) (Homo sapiens (Human), UniProt Q5JUK3)
# Experiment: KCNT1-WT-Basal - Patch Clamp Assay
# Assay type: cell-based
# Conditions: tetracycline inducible HEK-TREX cell line; SyncroPatch 384PE automated patch clamp; step to 0 mV; room temperature
# Experimental: Inhibition of KCNT1 (KNa1.1, Slack) was evaluated using a tetracycline inducible cell line (HEK-TREX). Currents were recorded using the SyncroPatch 384PE automated, patch clamp system. Pulse generation and data collection were performed with PatchController384 V1.3.0 and DataController384 V1.2.1 (Nanion Technologies). The access resistance and apparent membrane capacitance were estimated using built-in protocols. Current were recorded in perforated patch mode (10 µM escin) from a population of cells. The cells were lifted, triturated, and resuspended at 800,000 cells/ml. The cells were allowed to recover in the cell hotel prior to experimentation. Currents were recorded at room temperature. The external solution contained the following (in mM): NaCl 105, NMDG 40, KC1 4, MgC12 1, CaC12 5 and HEPES 10 (pH = 7.4, Osmolarity ~300 mOsm). The extracellular solution was used as the wash, reference and compound delivery solution. The internal solution contained the following (in mM): NaCl 70, KF 70, KC1 10, EGTA 5, HEPES 5 and Escin 0.01 (pH = 7.2, Osmolarity ~295 mOsm). Escin is made at a 5 mM stock in water, aliquoted, and stored at -20° C. The compound plate was created at 2x concentrated in the extracellular solution. The compound was diluted to 1:2 when added to the recording well. The amount of DMSO in the extracellular solution was held constant at the level used for the highest tested concentration. A holding potential of -80 mV with a 100 ms step to 0 mV was used. Mean current was measured during the step to 0 mV. […] The average mean current from 3 sweeps was calculated and the % inhibition of each compound was calculated. The % Inhibition as a function of the compound concentration was fit with a Hill equation to derive IC50, slope, min and max parameters. If KCNT1 inhibition was less than 50% at the highest tested concentration or if an IC50 could not be calculated, then a percent inhibition was reported in place of the IC50.
# In this table, “A” indicates IC50 of less than or equal to 1 µM; “B” indicates inhibition of between 1 µM to 20 µM; and “C” indicates inhibition of greater than or equal to 20 µM.
# Sequence of KCNT1 (KNa1.1, Slack) (Q5JUK3 whole entry): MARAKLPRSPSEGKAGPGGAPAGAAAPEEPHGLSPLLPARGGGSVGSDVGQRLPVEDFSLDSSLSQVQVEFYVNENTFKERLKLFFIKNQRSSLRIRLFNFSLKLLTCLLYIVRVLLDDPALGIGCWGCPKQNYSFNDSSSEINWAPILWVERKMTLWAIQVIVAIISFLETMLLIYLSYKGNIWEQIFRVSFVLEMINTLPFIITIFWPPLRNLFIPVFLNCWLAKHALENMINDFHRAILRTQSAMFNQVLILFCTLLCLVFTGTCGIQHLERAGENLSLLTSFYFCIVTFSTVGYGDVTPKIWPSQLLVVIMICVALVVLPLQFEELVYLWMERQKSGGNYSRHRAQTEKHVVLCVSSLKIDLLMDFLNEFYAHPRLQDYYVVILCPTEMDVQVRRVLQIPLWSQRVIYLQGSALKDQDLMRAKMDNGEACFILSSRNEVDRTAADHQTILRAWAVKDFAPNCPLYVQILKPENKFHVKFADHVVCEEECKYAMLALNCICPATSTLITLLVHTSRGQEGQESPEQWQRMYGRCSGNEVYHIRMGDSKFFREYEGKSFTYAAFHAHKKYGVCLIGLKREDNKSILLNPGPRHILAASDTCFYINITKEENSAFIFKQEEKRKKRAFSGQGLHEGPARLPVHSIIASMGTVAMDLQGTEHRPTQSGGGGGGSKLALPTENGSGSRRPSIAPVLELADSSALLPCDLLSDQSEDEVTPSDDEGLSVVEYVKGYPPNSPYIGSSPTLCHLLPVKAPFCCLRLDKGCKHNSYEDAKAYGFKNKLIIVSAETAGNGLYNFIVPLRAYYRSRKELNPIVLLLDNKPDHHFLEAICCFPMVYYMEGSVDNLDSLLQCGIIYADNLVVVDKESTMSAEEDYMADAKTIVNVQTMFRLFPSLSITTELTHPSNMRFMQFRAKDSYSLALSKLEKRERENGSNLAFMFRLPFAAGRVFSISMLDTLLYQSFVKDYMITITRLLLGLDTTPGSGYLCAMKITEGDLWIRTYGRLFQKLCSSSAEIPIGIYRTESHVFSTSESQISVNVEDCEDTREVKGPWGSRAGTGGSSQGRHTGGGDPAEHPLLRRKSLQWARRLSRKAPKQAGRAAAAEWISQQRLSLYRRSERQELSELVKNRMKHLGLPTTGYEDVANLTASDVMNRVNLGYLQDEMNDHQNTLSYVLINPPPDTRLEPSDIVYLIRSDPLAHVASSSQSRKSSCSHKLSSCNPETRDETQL
row,IC50 [µM],SMILES
1,≤ 1,"C[C@H](NC(=O)c1cccc(C(F)(F)F)c1)c1cc(-c2ccnc(C(F)(F)F)c2)no1 (single isomer, unassigned) [Example 32]"
2,1 to 20,"C[C@@H](NC(=O)c1cccc(C(F)(F)F)c1)c1cc(-c2ccnc(C(F)(F)F)c2)no1 (single isomer, unassigned) [Example 33]"
3,1 to 20,"C[C@H](NC(=O)N1CCCc2ccccc21)c1cc(-c2ccnc(C(F)(F)F)c2)no1 (single isomer, unassigned) [Example 34]"
4,≤ 1,"C[C@@H](NC(=O)N1CCCc2ccccc21)c1cc(-c2ccnc(C(F)(F)F)c2)no1 (single isomer, unassigned) [Example 35]"
5,≤ 1,"C[C@@H](NC(=O)c1ccnn1C1CCC1)c1cc(-c2ccnc(C(F)(F)F)c2)no1 (single isomer, unassigned) [Example 36]"
6,1 to 20,"C[C@H](NC(=O)c1ccnn1C1CCC1)c1cc(-c2ccnc(C(F)(F)F)c2)no1 (single isomer, unassigned) [Example 37]"
7,1 to 20,"C[C@H](NC(=O)N1CCOc2ccccc21)c1cc(-c2ccnc(C(F)(F)F)c2)no1 (single isomer, unassigned) [Example 38]"
8,≤ 1,"C[C@@H](NC(=O)N1CCOc2ccccc21)c1cc(-c2ccnc(C(F)(F)F)c2)no1 (single isomer, unassigned) [Example 39]"
9,1 to 20,"COCc1cc(-c2nsc([C@H](C)NC(=O)c3cc(C(F)(F)F)nn3C)n2)ccn1 (single isomer, unassigned) [Example 42]"
10,1 to 20,"COCc1cc(-c2nsc([C@@H](C)NC(=O)c3cc(C(F)(F)F)nn3C)n2)ccn1 (single isomer, unassigned) [Example 43]"
11,1 to 20,"Cc1cc(-c2nsc([C@H](C)NC(=O)c3cc(C(F)(F)F)nn3C)n2)ccn1 [Example 40, 2-methyl-N-[(1S)-1-[3-(2-methyl-4-pyridyl)-1,2,4-thiadiazol-5-yl]ethyl]-5-(trifluoromethyl)pyrazole-3-carboxamide]"
12,1 to 20,"Cc1cc(-c2nsc([C@@H](C)NC(=O)c3cc(C(F)(F)F)nn3C)n2)ccn1 [Example 41, (R)-1-methyl-N-(1-(3-(2-methylpyridin-4-yl)-1,2,4-thiadiazol-5-yl)ethyl)-3-(trifluoromethyl)-1H-pyrazole-5-carboxamide]"
13,≤ 1,"COc1cc(-c2nsc([C@H](C)NC(=O)c3cc(C(F)(F)F)nn3C)n2)ccn1 [Example 44, 2-methyl-N-[(1S)-1-[3-(2-methoxy-4-pyridyl)-1,2,4-thiadiazol-5-yl]ethyl]-5-(trifluoromethyl)pyrazole-3-carboxamide]"
14,≤ 1,"COc1cc(-c2nsc([C@@H](C)NC(=O)c3cc(C(F)(F)F)nn3C)n2)ccn1 [Example 45, 2-methyl-N-[(1R)-1-[3-(2-methoxy-4-pyridyl)-1,2,4-thiadiazol-5-yl]ethyl]-5-(trifluoromethyl)pyrazole-3-carboxamide]"

# Continued, compound first:
row,SMILES,IC50 [µM]
1,"C[C@H](NC(=O)c1cc(C(F)(F)F)nn1C)c1cc(-c2ccnc(C(F)(F)F)c2)no1 (single isomer, unassigned) [Example 2]",≤ 1
2,"C[C@@H](NC(=O)c1cc(C(F)(F)F)nn1C)c1cc(-c2ccnc(C(F)(F)F)c2)no1 (single isomer, unassigned) [Example 3]",1 to 20
3,"C[C@H](NC(=O)c1cccc(Cl)c1)c1nc(-c2ccnc(C3CC3)c2)ns1 (single isomer, unassigned) [Example 6]",≤ 1
4,"C[C@@H](NC(=O)c1cccc(Cl)c1)c1nc(-c2ccnc(C3CC3)c2)ns1 (single isomer, unassigned) [Example 7]",≤ 1
5,"C[C@H](NC(=O)N1CCCCC1)c1cc(-c2ccnc(C(F)(F)F)c2)no1 (single isomer, unassigned) [Example 8]",≥ 20
6,"C[C@@H](NC(=O)N1CCCCC1)c1cc(-c2ccnc(C(F)(F)F)c2)no1 (single isomer, unassigned) [Example 9]",1 to 20
7,"C[C@@H](NC(=O)c1cc(C(F)(F)F)nn1C)c1nc(-c2ccnc(C(F)(F)F)c2)ns1 (single isomer, unassigned) [Example 10]",≤ 1
8,"C[C@H](NC(=O)c1cc(C(F)(F)F)nn1C)c1nc(-c2ccnc(C(F)(F)F)c2)ns1 (single isomer, unassigned) [Example 11]",≤ 1
9,"C[C@H](NC(=O)c1cc(C(F)(F)F)nn1C)c1nc(-c2ccnc(C3CC3)c2)ns1 (single isomer, unassigned) [Example 12]",≤ 1
10,"C[C@@H](NC(=O)c1cc(C(F)(F)F)nn1C)c1nc(-c2ccnc(C3CC3)c2)ns1 (single isomer, unassigned) [Example 13]",≤ 1
11,"C[C@H](NC(=O)c1ccccc1)c1cc(-c2ccnc(C3CC3)c2)no1 (single isomer, unassigned) [Example 14]",≤ 1
12,"C[C@@H](NC(=O)c1ccccc1)c1cc(-c2ccnc(C3CC3)c2)no1 (single isomer, unassigned) [Example 15]",1 to 20
13,"C[C@@H](NC(=O)c1cc(C(F)(F)F)nn1C)c1cc(-c2ccnc(C3CC3)c2)no1 (single isomer, unassigned) [Example 16]",≤ 1
14,"C[C@H](NC(=O)c1cc(C(F)(F)F)nn1C)c1cc(-c2ccnc(C3CC3)c2)no1 (single isomer, unassigned) [Example 17]",1 to 20
15,"C[C@H](NC(=O)c1cccc(Cl)c1)c1cc(-c2ccnc(C3CC3)c2)no1 (single isomer, unassigned) [Example 18]",1 to 20
16,"C[C@@H](NC(=O)c1cccc(Cl)c1)c1cc(-c2ccnc(C3CC3)c2)no1 (single isomer, unassigned) [Example 19]",≤ 1

row,SMILES,IC50 [µM]
1,"C[C@@H](NC(=O)c1cccc(Cl)c1)c1cc(-c2ccnc(C(F)(F)F)c2)no1 (single isomer, unassigned) [Example 20]",1 to 20
2,"C[C@H](NC(=O)c1cccc(Cl)c1)c1cc(-c2ccnc(C(F)(F)F)c2)no1 (single isomer, unassigned) [Example 21]",≤ 1
3,"C[C@@H](NC(=O)c1ccccc1)c1cc(-c2ccnc(C(F)(F)F)c2)no1 (single isomer, unassigned) [Example 22]",≥ 20
4,"C[C@H](NC(=O)c1ccccc1)c1cc(-c2ccnc(C(F)(F)F)c2)no1 (single isomer, unassigned) [Example 23]",1 to 20
5,"CC(C)c1cc(C(=O)N[C@H](C)c2cc(-c3ccnc(C(F)(F)F)c3)no2)n(C)n1 (single isomer, unassigned) [Example 24]",1 to 20
6,"CC(C)c1cc(C(=O)N[C@@H](C)c2cc(-c3ccnc(C(F)(F)F)c3)no2)n(C)n1 (single isomer, unassigned) [Example 25, (N)-3-isopropyl-1-methyl-N-(1-(3-(2-(trifluoromethyl)pyridin-4-yl)isoxazol-5-yl)ethyl)-1H pyrazole-5-carboxamide]",≤ 1
7,"C[C@@H](NC(=O)C1CCCCC1)c1cc(-c2ccnc(C(F)(F)F)c2)no1 (single isomer, unassigned) [Example 26]",≥ 20
8,"C[C@H](NC(=O)C1CCCCC1)c1cc(-c2ccnc(C(F)(F)F)c2)no1 (single isomer, unassigned) [Example 27]",1 to 20
9,"C[C@@H](NC(=O)Cc1ccccc1)c1cc(-c2ccnc(C(F)(F)F)c2)no1 (single isomer, unassigned) [Example 28]",≥ 20
10,"C[C@H](NC(=O)Cc1ccccc1)c1cc(-c2ccnc(C(F)(F)F)c2)no1 (single isomer, unassigned) [Example 29]",1 to 20
11,"C[C@@H](NC(=O)c1cc(C(F)F)nn1C)c1cc(-c2ccnc(C(F)(F)F)c2)no1 (single isomer, unassigned) [Example 30]",1 to 20
12,"C[C@H](NC(=O)c1cc(C(F)F)nn1C)c1cc(-c2ccnc(C(F)(F)F)c2)no1 (single isomer, unassigned) [Example 31]",≤ 1
13,"CC(NC(=O)c1cc(C(F)(F)F)nn1C)c1nc(-c2ccnc(C(F)(F)F)c2)ns1 (stereo not drawn) [Example 1, 1-methyl-3-(trifluoromethyl)-N-(1-(3-(2-(trifluoromethyl)pyridin-4-yl)-1,2,4-thiadiazol-5-yl)ethyl)-1H-pyrazole-5-carboxamide]",≤ 1
14,"C[C@H](NC(=O)c1ccccc1)c1nc(-c2ccnc(C3CC3)c2)ns1 [Example 4, (S)-N-(1-(3-(2-cyclopropylpyridin-4-yl)-1,2,4-thiadiazol-5-yl)ethyl)benzamide]",≤ 1
15,"C[C@@H](NC(=O)c1ccccc1)c1nc(-c2ccnc(C3CC3)c2)ns1 [Example 5, (R)-N-(1-(3-(2-cyclopropylpyridin-4-yl)-1,2,4-thiadiazol-5-yl)ethyl)benzamide]",≤ 1
